Experimental data published in patent US10233426B2, “Method for inducing cardiac differentiation of pluripotent stem cell with low-molecular compounds” (KYOTO UNIVERSITY, priority 2014, dated 2019).

Tested on: monkey ES cell line transfected with an αMHC promoter-driven GFP gene
Experiment: Chemical screening: GFP fluorometry for cardiac differentiation of monkey ES cells
Assay type: cell-based, cynomolgus monkey
Settings: 1 to 3 μM in late phase, alone or in combination with KY02111 (10 μM in late phase); FIG. 1e
Protocol: Pluripotent stem cells were cultured in culture media to which the test compounds were added in different concentrations (0.3 μM, 1 μM, 3 μM and 10 μM) in early phase and late phase of differentiation of the cells. Cells from the culture were subjected to GFP fluorometry in accordance with the cardiac differentiation protocol shown in FIG. 1a. Besides the test compounds, 10 μM KY02111 was included in the culture media for the late phase differentiation. The intensity of GFP fluorescence determined in the cells from the control culture, which was cultured with no test compound other than KY02111, was assigned to one.
The scheme of chemical screening is illustrated in FIG. 1a. Compounds were screened for the ability of increasing GFP fluorescence compared with the control (KY02111 alone) using a monkey ES cell line transfected with an αMHC promoter-driven GFP gene (Minami et al., Cell Reports 2, 1448-1460, 2012, which is incorporated herein by reference). The ES cell line was derived from a monkey ES cell line (cynomolgus monkey CMK6.4) by transfecting the cells with a vector which expresses green fluorescent protein (GFP) under control by a promoter of α-MHC gene (a marker of cardiac differentiation). The cells were plated at 4.0×10^5 cells per well in 6 well plates (Asahi Glass/5816-006: Ezview culture plates) and cultured for nine days in an IMDM-based medium for cardiac differentiation (200 ml IMDM medium (Sigma 13390), with 50 ml calf serum (GIBCO 10099-141), 2.5 ml MEM non-essential amino acid solution (Sigma M7145), 2.5 ml penicillin-streptomycin ([…]), 2.5 ml 200 mM L-glutamine, 2 ul 2-mercaptoethanol (Sigma M7522), and 255 ul 5N NaOH). Each test compound was added to the medium at different concentrations in the early phase (day 0 to day 3) and the late phase (day 4 to day 7) of cardiac differentiation. Cells obtained from the culture on day 9 were subjected to GFP fluorometry with a Metamorph imaging system. […]

Row | SMILES | increase of cardiac differentiation
1 | CN(C)S(=O)(=O)c1ccc2c(c1)/C(=C/c1cc3c([nH]1)CCCC3)C(=O)N2 [SU6656] | two- to five-fold

Same assay, conditions: test compound 0.3 μM in Early phase (day 0 to day 3); 10 μM KY02111 in late phase; GFP fluorometry day 9

Row | SMILES | intensity of GFP fluorescence relative to control culture (KY02111 only, assigned to one)
2 | CCN(CC)CCCCNc1ncc2cc(-c3cc(OC)cc(OC)c3)c(NC(=O)NC(C)(C)C)nc2n1 [PD173074] | 0.02
3 | O=C1NC(=O)/C(=C\c2ccc3nccnc3c2)S1 [AS605240] | 0.65
4 | COc1ccc2c(c1)c(C1=C(c3c[nH]c4ccccc34)C(=O)NC1=O)cn2CCCN(C)C [Go6983] | 1.1
5 | CNC(=O)c1ccccc1Sc1ccc2c(/C=C/c3ccccn3)n[nH]c2c1 [Axitinib] | 0.64
6 | COc1ccc(-c2ccc3c(N4CCOCC4)nc(N4C[C@@H](C)O[C@@H](C)C4)nc3n2)cc1CO [K00063794] | 0.18

Same assay, conditions: test compound 0.3 μM in Late phase (day 4 to day 7) with 10 μM KY02111; GFP fluorometry day 9

Row | SMILES | intensity of GFP fluorescence relative to control culture (KY02111 only, assigned to one)
7 | CCN(CC)CCCCNc1ncc2cc(-c3cc(OC)cc(OC)c3)c(NC(=O)NC(C)(C)C)nc2n1 [PD173074] | 0.23
8 | O=C1NC(=O)/C(=C\c2ccc3nccnc3c2)S1 [AS605240] | 1.31
9 | COc1ccc2c(c1)c(C1=C(c3c[nH]c4ccccc34)C(=O)NC1=O)cn2CCCN(C)C [Go6983] | 1.12
10 | CNC(=O)c1ccccc1Sc1ccc2c(/C=C/c3ccccn3)n[nH]c2c1 [Axitinib] | 0.95
11 | COc1ccc(-c2ccc3c(N4CCOCC4)nc(N4C[C@@H](C)O[C@@H](C)C4)nc3n2)cc1CO [K00063794] | 0.95

Same assay, conditions: test compound 1 μM in Early phase (day 0 to day 3); 10 μM KY02111 in late phase; GFP fluorometry day 9

Row | SMILES | intensity of GFP fluorescence relative to control culture (KY02111 only, assigned to one)
12 | CCN(CC)CCCCNc1ncc2cc(-c3cc(OC)cc(OC)c3)c(NC(=O)NC(C)(C)C)nc2n1 [PD173074] | 0
13 | O=C1NC(=O)/C(=C\c2ccc3nccnc3c2)S1 [AS605240] | 0.84
14 | COc1ccc2c(c1)c(C1=C(c3c[nH]c4ccccc34)C(=O)NC1=O)cn2CCCN(C)C [Go6983] | 0.98
15 | CNC(=O)c1ccccc1Sc1ccc2c(/C=C/c3ccccn3)n[nH]c2c1 [Axitinib] | 0.02
16 | COc1ccc(-c2ccc3c(N4CCOCC4)nc(N4C[C@@H](C)O[C@@H](C)C4)nc3n2)cc1CO [K00063794] | 0.01

Same assay, conditions: test compound 1 μM in Late phase (day 4 to day 7) with 10 μM KY02111; GFP fluorometry day 9

Row | SMILES | intensity of GFP fluorescence relative to control culture (KY02111 only, assigned to one)
17 | CCN(CC)CCCCNc1ncc2cc(-c3cc(OC)cc(OC)c3)c(NC(=O)NC(C)(C)C)nc2n1 [PD173074] | 0.08
18 | O=C1NC(=O)/C(=C\c2ccc3nccnc3c2)S1 [AS605240] | 0.9
19 | COc1ccc2c(c1)c(C1=C(c3c[nH]c4ccccc34)C(=O)NC1=O)cn2CCCN(C)C [Go6983] | 0.62
20 | CNC(=O)c1ccccc1Sc1ccc2c(/C=C/c3ccccn3)n[nH]c2c1 [Axitinib] | 0.25
21 | COc1ccc(-c2ccc3c(N4CCOCC4)nc(N4C[C@@H](C)O[C@@H](C)C4)nc3n2)cc1CO [K00063794] | 0.85

Same assay, conditions: test compound 3 μM in Early phase (day 0 to day 3); 10 μM KY02111 in late phase; GFP fluorometry day 9

Row | SMILES | intensity of GFP fluorescence relative to control culture (KY02111 only, assigned to one)
22 | CCN(CC)CCCCNc1ncc2cc(-c3cc(OC)cc(OC)c3)c(NC(=O)NC(C)(C)C)nc2n1 [PD173074] | 0
23 | O=C1NC(=O)/C(=C\c2ccc3nccnc3c2)S1 [AS605240] | 0.32
24 | COc1ccc2c(c1)c(C1=C(c3c[nH]c4ccccc34)C(=O)NC1=O)cn2CCCN(C)C [Go6983] | 2.31
25 | CNC(=O)c1ccccc1Sc1ccc2c(/C=C/c3ccccn3)n[nH]c2c1 [Axitinib] | 0
26 | COc1ccc(-c2ccc3c(N4CCOCC4)nc(N4C[C@@H](C)O[C@@H](C)C4)nc3n2)cc1CO [K00063794] | 0

Same assay, conditions: test compound 3 μM in Late phase (day 4 to day 7) with 10 μM KY02111; GFP fluorometry day 9

Row | SMILES | intensity of GFP fluorescence relative to control culture (KY02111 only, assigned to one)
27 | CCN(CC)CCCCNc1ncc2cc(-c3cc(OC)cc(OC)c3)c(NC(=O)NC(C)(C)C)nc2n1 [PD173074] | 0
28 | O=C1NC(=O)/C(=C\c2ccc3nccnc3c2)S1 [AS605240] | 1.22
29 | COc1ccc2c(c1)c(C1=C(c3c[nH]c4ccccc34)C(=O)NC1=O)cn2CCCN(C)C [Go6983] | 0.45
30 | CNC(=O)c1ccccc1Sc1ccc2c(/C=C/c3ccccn3)n[nH]c2c1 [Axitinib] | 0.05
31 | COc1ccc(-c2ccc3c(N4CCOCC4)nc(N4C[C@@H](C)O[C@@H](C)C4)nc3n2)cc1CO [K00063794] | 0.21

Same assay, conditions: test compound 10 μM in Early phase (day 0 to day 3); 10 μM KY02111 in late phase; GFP fluorometry day 9

Row | SMILES | intensity of GFP fluorescence relative to control culture (KY02111 only, assigned to one)
32 | CCN(CC)CCCCNc1ncc2cc(-c3cc(OC)cc(OC)c3)c(NC(=O)NC(C)(C)C)nc2n1 [PD173074] | 0
33 | O=C1NC(=O)/C(=C\c2ccc3nccnc3c2)S1 [AS605240] | 0
34 | COc1ccc2c(c1)c(C1=C(c3c[nH]c4ccccc34)C(=O)NC1=O)cn2CCCN(C)C [Go6983] | 2.12
35 | CNC(=O)c1ccccc1Sc1ccc2c(/C=C/c3ccccn3)n[nH]c2c1 [Axitinib] | 0
36 | COc1ccc(-c2ccc3c(N4CCOCC4)nc(N4C[C@@H](C)O[C@@H](C)C4)nc3n2)cc1CO [K00063794] | 0

Same assay, conditions: test compound 10 μM in Late phase (day 4 to day 7) with 10 μM KY02111; GFP fluorometry day 9

Row | SMILES | intensity of GFP fluorescence relative to control culture (KY02111 only, assigned to one)
37 | CCN(CC)CCCCNc1ncc2cc(-c3cc(OC)cc(OC)c3)c(NC(=O)NC(C)(C)C)nc2n1 [PD173074] | 0
38 | O=C1NC(=O)/C(=C\c2ccc3nccnc3c2)S1 [AS605240] | 0.55
39 | COc1ccc2c(c1)c(C1=C(c3c[nH]c4ccccc34)C(=O)NC1=O)cn2CCCN(C)C [Go6983] | 0.13
40 | CNC(=O)c1ccccc1Sc1ccc2c(/C=C/c3ccccn3)n[nH]c2c1 [Axitinib] | 0
41 | COc1ccc(-c2ccc3c(N4CCOCC4)nc(N4C[C@@H](C)O[C@@H](C)C4)nc3n2)cc1CO [K00063794] | 0
